Laboratory results from ChEMBL document CHEMBL1649191, “Genetic organization of transposase regions surrounding blaKPC carbapenemase genes on plasmids from Klebsiella strains isolated in a New York City hospital” (2009).
Converted amounts (≈) assume the structure as drawn.

Experiments:
Format in all cases: functional
Klebsiella pneumoniae [1] = assay: Antimicrobial activity against blaKPC-positive Klebsiella pneumoniae S4 by broth microdilution method
Klebsiella pneumoniae [2] = assay: Antimicrobial activity against blaKPC-positive Klebsiella pneumoniae S10 by broth microdilution method
Klebsiella pneumoniae [3] = assay: Antimicrobial activity against blaKPC-positive Klebsiella pneumoniae S8 by broth microdilution method
Klebsiella pneumoniae [4] = assay: Antimicrobial activity against blaKPC-positive Klebsiella pneumoniae S1 by broth microdilution method
Klebsiella pneumoniae [5] = assay: Antimicrobial activity against blaKPC-positive Klebsiella pneumoniae S3 by broth microdilution method
Klebsiella pneumoniae [6] = assay: Antimicrobial activity against blaKPC-positive Klebsiella pneumoniae S15 by broth microdilution method
Klebsiella pneumoniae [7] = assay: Antimicrobial activity against blaKPC-positive Klebsiella pneumoniae S5 by broth microdilution method
Klebsiella pneumoniae [8] = assay: Antimicrobial activity against blaKPC-positive Klebsiella pneumoniae S14 by broth microdilution method
Klebsiella pneumoniae [9] = assay: Antimicrobial activity against blaKPC-positive Klebsiella pneumoniae S2 by broth microdilution method
Klebsiella oxytoca = assay: Antimicrobial activity against blaKPC-positive Klebsiella oxytoca S13 by broth microdilution method
Klebsiella pneumoniae [10] = assay: Antimicrobial activity against blaKPC-positive Klebsiella pneumoniae S9 by broth microdilution method
Klebsiella pneumoniae [11] = assay: Antimicrobial activity against blaKPC-positive Klebsiella pneumoniae S11 by broth microdilution method
Klebsiella pneumoniae [12] = assay: Antimicrobial activity against blaKPC-positive Klebsiella pneumoniae S7 by broth microdilution method
Klebsiella pneumoniae [13] = assay: Antimicrobial activity against blaKPC-positive Klebsiella pneumoniae S12 by broth microdilution method
Klebsiella pneumoniae [14] = assay: Antimicrobial activity against blaKPC-positive Klebsiella pneumoniae S6 by broth microdilution method

Molecule	MIC (Klebsiella pneumoniae [1]) [µg/mL]	MIC (Klebsiella pneumoniae [2]) [µg/mL]	MIC (Klebsiella pneumoniae [3]) [µg/mL]	MIC (Klebsiella pneumoniae [4]) [µg/mL]	MIC (Klebsiella pneumoniae [5]) [µg/mL]	MIC (Klebsiella pneumoniae [6]) [µg/mL]	MIC (Klebsiella pneumoniae [7]) [µg/mL]	MIC (Klebsiella pneumoniae [8]) [µg/mL]	MIC (Klebsiella pneumoniae [9]) [µg/mL]	MIC (Klebsiella oxytoca) [µg/mL]	MIC (Klebsiella pneumoniae [10]) [µg/mL]	MIC (Klebsiella pneumoniae [11]) [µg/mL]	MIC (Klebsiella pneumoniae [12]) [µg/mL]	MIC (Klebsiella pneumoniae [13]) [µg/mL]	MIC (Klebsiella pneumoniae [14]) [µg/mL]
CO/N=C(\C(=O)N[C@@H]1C(=O)N2C(C(=O)[O-])=C(C[N+]3(C)CCCC3)CS[C@H]12)c1csc(N)n1	64 (≈ 133 µM)	> 64	64 (≈ 133 µM)	32 (≈ 66.6 µM)	> 64	> 64	> 64	> 64	> 64	> 64	> 64	> 64	> 64	> 64	> 64
NCC[C@H](O)C(=O)N[C@@H]1C[C@H](N)[C@@H](O[C@H]2O[C@H](CN)[C@@H](O)[C@H](O)[C@H]2O)[C@H](O)[C@H]1O[C@H]1O[C@H](CO)[C@@H](O)[C@H](N)[C@H]1O [AMIKACIN]	1 (≈ 1.71 µM)	> 64	> 64	16 (≈ 27.3 µM)	32 (≈ 54.6 µM)	32 (≈ 54.6 µM)	64 (≈ 109 µM)	32 (≈ 54.6 µM)	32 (≈ 54.6 µM)	4 (≈ 6.83 µM)	16 (≈ 27.3 µM)	2 (≈ 3.42 µM)	1 (≈ 1.71 µM)	16 (≈ 27.3 µM)	32 (≈ 54.6 µM)
C[C@H]1[C@H](NC(=O)/C(=N\OC(C)(C)C(=O)O)c2csc(N)n2)C(=O)N1S(=O)(=O)O [AZTREONAM]	> 64	> 64	> 64	> 64	> 64	> 64	> 64	> 64	> 64	> 64	> 64	> 64	> 64	> 64	> 64
CC(C)(O/N=C(\C(=O)N[C@@H]1C(=O)N2C(C(=O)[O-])=C(C[n+]3ccccc3)CS[C@H]12)c1csc(N)n1)C(=O)O [CEFTAZIDIME]	8 (≈ 14.6 µM)	> 64	> 64	> 64	64 (≈ 117 µM)	> 64	> 64	> 64	> 64	> 64	> 64	16 (≈ 29.3 µM)	32 (≈ 58.5 µM)	> 64	> 64
O=C(O)c1cn(C2CC2)c2cc(N3CCNCC3)c(F)cc2c1=O [CIPROFLOXACIN]	0.06 (≈ 0.181 µM)	> 64	> 64	> 64	> 64	> 64	> 64	64 (≈ 193 µM)	> 64	0.06 (≈ 0.181 µM)	> 64	1 (≈ 3.02 µM)	32 (≈ 96.6 µM)	< 0.06	> 64
C[C@@H](O)[C@H]1C(=O)N2C(C(=O)O)=C(SCCNC=N)C[C@H]12 [IMIPENEM ANHYDROUS]	8 (≈ 26.7 µM)	64 (≈ 214 µM)	64 (≈ 214 µM)	32 (≈ 107 µM)	32 (≈ 107 µM)	64 (≈ 214 µM)	64 (≈ 214 µM)	> 64	32 (≈ 107 µM)	32 (≈ 107 µM)	> 64	32 (≈ 107 µM)	32 (≈ 107 µM)	32 (≈ 107 µM)	32 (≈ 107 µM)
C[C@@H](O)[C@H]1C(=O)N2C(C(=O)O)=C(S[C@@H]3CN[C@H](C(=O)N(C)C)C3)[C@H](C)[C@H]12 [MEROPENEM]		64 (≈ 167 µM)	64 (≈ 167 µM)	> 64	64 (≈ 167 µM)	64 (≈ 167 µM)	64 (≈ 167 µM)	64 (≈ 167 µM)	64 (≈ 167 µM)	32 (≈ 83.4 µM)	> 64	32 (≈ 83.4 µM)	32 (≈ 83.4 µM)	32 (≈ 83.4 µM)	64 (≈ 167 µM)
CN(C)c1cc(NC(=O)CNC(C)(C)C)c(O)c2c1C[C@H]1C[C@H]3[C@H](N(C)C)C(O)=C(C(N)=O)C(=O)[C@@]3(O)C(O)=C1C2=O [TIGECYCLINE]	0.5 (≈ 0.854 µM)	1 (≈ 1.71 µM)	2 (≈ 3.41 µM)	1 (≈ 1.71 µM)	1 (≈ 1.71 µM)	1 (≈ 1.71 µM)	1 (≈ 1.71 µM)	0.25 (≈ 0.427 µM)	1 (≈ 1.71 µM)	0.25 (≈ 0.427 µM)	2 (≈ 3.41 µM)	0.25 (≈ 0.427 µM)	0.5 (≈ 0.854 µM)	0.25 (≈ 0.427 µM)	4 (≈ 6.83 µM)
GENTAMICIN		8	8		2	2	1	32	2	8	1		8	16	1
POLYMYXIN B	8	4	8	2	8	4	4	1	8	4	4	16	16	2	16
